# Entries after “also recorded” stand apart in the source; their conditions may differ.
# Assays:
# [1] = test system: Abeta oligomer-induced acceleration of exocytosis in primary neurons; experiment: Exocytosis assay/MTT assay (Example AA); assay type: cell-based, rat; conditions: Primary neuron
# Experimental: Primary neurons from E18 Sprague-Dawley rat embryos are plated at optimized concentrations in 384 well plates in NB media (Invitrogen). Neurons are maintained in cultures for 3 weeks, with twice weekly feeding of NB media with N2 supplement (Invitrogen). A test compound is added to cells, followed by addition of Vehicle or Abeta oligomer preparations (1.5 μM), and incubated for 1 to 24 hr at 37° C. in 5% CO2. MTT reagent (3-(4,5-dimethylthizaol-2yl)-2,5diphenyl tetrazolium bromide) (Roche Molecular Biochemicals) is reconstituted in phosphate buffered saline to 5 mg/mL. 10 μL of MTT labeling reagent is added to each well and incubated at 37° C. for 1 h, then imaged.
# Each assay plate is formatted so that compounds are tested with and without Abeta on each plate. […] Statistical performance of the screening plate layout are assessed, screening will be initiated if the current performance is maintained. […]
# Optimal cell density is determined based on cellular response to Abeta oligomers using the exocytosis assay as a readout, and immunohistochemical analysis of the relative proportion of glia to neurons in the cultures. Cultures are monitored on a weekly basis with immunohistochemistry and image processing-based quantification to monitor the percentage of the cultures that are neurons vs. glia (Glial cells). […]
# Abeta 1-42 Oligomers = target: T1, Abeta 1-42 Oligomers (Homo sapiens, UniProt P05067); experiment: Binding assay (Example BB): Abeta oligomer binding to neurons, image processing; conditions: imaging processing algorithm
# T1 construct: Human amyloid peptide 1-42 is obtained from California Peptide; purchased California Peptide
# T1 sequence (P05067 672-713): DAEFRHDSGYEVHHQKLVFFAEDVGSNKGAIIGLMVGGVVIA
# Experimental: Each test compound was added to a plate followed by an addition of one or more of Abeta 1-42 Oligomers. The plates were fixed with 3.7% paraformaldehyde in phosphate buffered saline (PBS) for 15 min. The plate was then washed 3× with PBS for 5 min each. The plates were blocked at room temperature for 1 hour in 5% goat serum and 0.5% Triton X-100 (CAS number: 9002-93-1) in PBS. Primary antibodies (anti-MAP 2 polyclonal, Millipore #AB5622 and anti-Beta Amyloid 6E10 monoclonal, Convance #SIG-39300) were diluted 1:1000 in 5% goat serum with PBS. Primary antibodies were incubated either overnight at 4° C. or 1 hour at RT. The plate was then washed 3× with PBS for 5 min each. Secondary antibodies (Alex Flor 488 polyclonal, Invitrogen #A11008 and Alexa Flor 647 monoclonal, Invitrogen #A21235) were diluted 1:1000 in 5% goat serum with PBS. Secondary antibodies were incubated at RT for 1 hr. The plates were washed once with PBS. […]
# Human amyloid peptide 1-42 is obtained from California Peptide, with lot-choice contingent upon quality control analysis. […] Toxicity is monitored in each image-based assay via quantification of nuclear morphology visualized with the DNA binding dye DAPI (Invitrogen). […]
# Images were captured and analyzed with the Cellomics VTI automated microscope platform, using the Neuronal Profiling algorithm. […]
# [2] = Pharmacokinetic studies (Example CC), plasma; assay type: in vivo; conditions: rat, iv, rats, injected intravenously at 1 mg/Kg
# Experimental: PK studies are performed at CEREP Inc of Redmond Wash., according to their standard protocols: The plasma samples were processed using acetonitrile precipitation and analyzed by HPLC-MS or HPLC-MS/MS. Peak areas were recorded, and the concentrations of the test compound in the unknown plasma samples were determined using the respective calibration curve. The reportable linear range of the assay was determined, along with the lower limit of quantitation (LLQ).
# Pharmacokinetic studies were performed according to the following protocols: The plasma samples were processed using acetonitrile precipitation and analyzed by HPLC-MS or HPLC-MS/MS. Peak areas were recorded, and the concentrations of the test compound in the unknown plasma samples were determined using the respective calibration curve. The reportable linear range of the assay was determined, along with the lower limit of quantitation (LLQ).
# [3] = test system: Abeta oligomer effects on membrane trafficking in mature primary neurons; experiment: Primary neuron-based functional screening assay (membrane trafficking/exocytosis, Example DD); assay type: cell-based, rat; conditions: for activity in blocking the effects of Abeta oligomers on membrane trafficking: compound added to neurons before oligomers
# Source text: Primary rat neurons grown for at least 3 weeks in vitro were chosen as the basis for this screening assay. […] More complex systems such as acute or organotypic brain slices are very useful but not amenable to high throughput screening. […] For this reason, primary neuronal cultures were chosen because of their ability to be used in high throughput screens and fidelity to what occurs in vivo.
# (Scale bar=20 microns in FIG. 1A). […] (FIG. 1B).
# The MTT assay can be used as a measure of toxicity in cultures. Yellow tetrazolium salts were endocytosed by cells and reduced to insoluble purple formazan in the endosomal pathway. The level of purple formazan was a reflection of the number of actively metabolizing cells in culture, and reduction in the amount of formazan was taken as a measure of cell death or metabolic toxicity in culture.
# The exocytosis assay was adapted for use with mature primary neuronal cultures grown for 3 weeks in vitro.
# Compounds were added to neurons first, then oligomers were added.
# Data were the average of 3 experiments. Scale bar=20 micron in FIG. 2D.
# [4] = test system: Abeta assemblies isolated from AD patients or normal individuals; experiment: Membrane trafficking assay with patient-derived Abeta assemblies (Example FF); assay type: cell-based; conditions: FIG. 4
# Experimental: Abeta assemblies were isolated from patients with Alzheimer's Disease (AD) or from normal patients. The Abeta assemblies were tested for their ability to modulate membrane trafficking. […] (FIG. 4). […] Compound Example 2 has no effect on Abeta assemblies isolated from Age-matched normal individuals. (FIG. 4). […] (FIG. 4).
# [5] = test system: Abeta oligomer-mediated memory deficits; experiment: Fear conditioning assay (Example EE); assay type: in vivo, mice
# Experimental: Compound Example 2 was tested in an animal model of a memory-dependent behavioral task known as fear conditioning. The study protocol was designed based on published protocols (See e.g. Puzzo D, Privitera L, Leznik E, Fà M, Staniszewski A, Palmeri A, Arancio O. Picomolar amyloid-beta positively modulates synaptic plasticity and memory in hippocampus. J Neurosci. 2008 Dec. 31; 28(53)14537-45.). The formation of contextual memories is dependent upon the integrity of medial temporal lobe structures such as the hippocampus. In this assay mice were trained to remember that a particular salient context (conditioned stimulus; CS) is associated with an aversive event, in this case a mild foot shock (the unconditioned stimulus, US). Animals that show good learning will express an increase in freezing behavior when placed back into the same context. This freezing is absent in a novel context. Increased freezing in the context indicates strong hippocampal-dependent memory formation in animals. Memory tested in Fear Conditioning is sensitive to elevations of soluble Aβ. […] The fear condition model for memory was performed as described herein.
compound,measurement,setting,value
"CC12CC3CC(C)(C1)CC(N)(C3)C2 [Memantine, memantine, reference compound]",inhibition at 28 µM,"[1]; Rattus norvegicus, 28 μM memantine, control on each plate, read-out: inhibition of oligomer effects",50%
"COc1cc(CCC(C)NCc2ccc(Cl)cc2)ccc1O (stereo not drawn) [Compound Example 1, 4-(3-(4-chlorobenzylamino)butyl)-2-methoxyphenol]",EC50,"[1]; MTT assay, primary rat neurons, Abeta oligomers 1.5 μM, read-out: EC50 for block of Abeta oligomer-induced acceleration of exocytosis",10 µM
same,partial block of binding of the Abeta oligomer ligand to neurons,Abeta 1-42 Oligomers,24%
same,half-life,[2],46 min
"C[N+](C)(C)CCCCCC[N+](C)(C)C [hexamethonium bromide, reference compound]",activity in blocking the effects of Abeta oligomers on membrane trafficking,[3],none were active
"COc1cc(CCC(C)NCc2ccc(C(F)(F)F)cc2)ccc1O (stereo not drawn) [Compound Example 2, 4-(3-(4-(trifluoromethyl)benzylamino)butyl)-2-methoxyphenol]",EC50,"[3]; Rattus norvegicus, Primary neuron, 504 h, FIG. 2B, primary neurons 3 weeks in vitro, read-out: EC50 for inhibition of oligomer effects on membrane trafficking",7 µM
same,activity in blocking the effects of Abeta oligomers on membrane trafficking,[3],inhibits oligomer effects on membrane trafficking; also recorded: effective
same,effect on trafficking effects of AD-brain derived Abeta assemblies,[4]; IMW (10-100 KDa) assemblies from AD patients,significantly blocked
same,effect on Abeta assemblies isolated from Age-matched normal individuals,[4]; IMW assemblies from normal individuals,no effect
same,effect on Abeta oligomer-mediated memory deficits,"[5]; 2 pmol dose, given prior to Abeta (200 nM), contextual fear conditioning, FIG. 3 bar d",completely blocked
same,block of oligomer effects on memory across doses,[5]; administered prior to Abeta oligomer administration,blocked oligomer effects on memory in a dose-dependent manner
same,adverse behavioral changes,[5]; any dose,No adverse behavioral changes were observed
same,effect of compound alone on memory,"[5]; no Abeta, data not shown",No effect
"O[C@H]1[C@H](O)[C@@H](O)[C@H](O)[C@@H](O)[C@@H]1O [scyllo-inositol, reference compound]",activity in blocking the effects of Abeta oligomers on membrane trafficking,[3],none were active
"C[C@]12N[C@H](Cc3ccccc31)c1ccccc12 [MK-801, reference compound]",activity in blocking the effects of Abeta oligomers on membrane trafficking,[3],none were active
